For 1 molecule, vapour pressure results are on record in patent US20060029628A1, “Use of a volatile cooling sensate on fibrous tissues to provide a sensation of rhinological decongestion” (priority 2004, published 2006).

This data set can be described thus: Vapour pressure of the pure substance. It counts as physicochemical. To be noted: about 20° C. Here is the method: “Volatility” according to the present invention is considered to be present for substances having a liquid or sublimation vapour pressure of the pure substance at 20° C. of at least about 0.013 Pascal (0.0001 mmHg), or at least about 0.1 Pascal. Vapour pressure can be measured according to ASTM Standard E1194-01 of November 2001. In certain embodiments according to the present invention, an upper limit for the vapour pressure of pure material should be less than about 67 Pascal (0.5 mmHg), or less than about 13 Pascal (0.1 mmHg) each at 20° C. Evaluation of whether a composition does vaporize sufficiently can be made by a panel of at least five people or by vapour head evaluation, e.g. with gas chromatography.

For `CNC(=O)C(C)(C(C)C)C(C)C` [WS-23, 2-Isopropyl-N,2,3-trimethylbutyramide], the vapour pressure result is listed as “about 0.53 Pascal”. In addition, the vapour pressure (equivalent of the Pascal value) was found to be 0.004 mmHg.
